PubChem BioAssay (NCI)
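Interpolation was linear, between the two tested concentrations surrounding the appropriate level; five concentrations were tested over 48 hours in 96-well plates. Abbreviation: GI50, concentration required for 50% inhibition of growth. The concentration for full growth arrest is given as TGI.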

Legend:
Experiment in all cases: NCI-60 cell line screen, 48 h
[1] = test system: HCT-116 colon
[2] = test system: OVCAR-4 ovarian
[3] = test system: CAKI-1 renal
[4] = test system: ACHN renal
[5] = test system: SNB-19 CNS
[6] = test system: HS 578T breast
[7] = test system: A549 NSCLC
[8] = test system: EKVX NSCLC
[9] = test system: RXF 393 renal
[10] = test system: U251 CNS
[11] = test system: T-47D breast
[12] = test system: SF-295 CNS
[13] = test system: MDA-MB-231 breast
[14] = test system: NCI-H460 lung
[15] = test system: COLO 205 colon
[16] = test system: IGROV1 ovarian
[17] = test system: OVCAR-8 ovarian
[18] = test system: M14 melanoma
[19] = test system: KM12 colon
[20] = test system: CCRF-CEM leukemia
[21] = test system: PC-3 prostate
[22] = test system: HOP-62 NSCLC
[23] = test system: NCI-H226 lung
[24] = test system: HCC-2998 colon
[25] = test system: MCF7 breast
[26] = test system: MDA-MB-435
[27] = test system: UACC-257 melanoma
[28] = test system: RPMI-8226 leukemia
[29] = test system: SF-539 CNS
[30] = test system: HOP-92 NSCLC
[31] = test system: SF-268 CNS
[32] = test system: HL-60(TB) leukemia
[33] = test system: NCI-H23 lung
[34] = test system: SNB-75 CNS
[35] = test system: NCI-H522 lung
[36] = test system: UACC-62 melanoma
[37] = test system: OVCAR-5 ovarian
[38] = test system: NCI/ADR-RES ovarian
[39] = test system: SW-620 colon
[40] = test system: HT29 colon
[41] = test system: MALME-3M melanoma
[42] = test system: SK-MEL-5 melanoma
[43] = test system: A498 renal
[44] = test system: SK-MEL-2 melanoma
[45] = test system: SK-OV-3 ovarian
[46] = test system: BT-549 breast
[47] = test system: 786-0 renal
[48] = test system: DU-145 prostate
[49] = test system: UO-31 renal
[50] = test system: HCT-15 colon
[51] = test system: TK-10 renal
[52] = test system: SN12C renal
[53] = test system: K-562 leukemia
[54] = test system: SK-MEL-28 melanoma
[55] = test system: MOLT-4 leukemia
[56] = test system: LOX IMVI melanoma

O=C(/C=C/c1csc(Br)n1)NO
GI50 [1]: 1.83 µM | TGI [1]: 4.51 µM | GI50 [2]: 6.3 µM | TGI [2]: > 100 µM | GI50 [3]: 2.35 µM | TGI [3]: 7.22 µM | GI50 [4]: 2.36 µM | TGI [4]: 6.99 µM | GI50 [5]: 3.82 µM | TGI [5]: 88.4 µM | GI50 [6]: 2.05 µM | TGI [6]: 8.66 µM | GI50 [7]: 2.45 µM | TGI [7]: 8.4 µM | GI50 [8]: 4.23 µM | TGI [8]: > 100 µM | GI50 [9]: 1.43 µM | TGI [9]: 3.65 µM | GI50 [10]: 1.9 µM | TGI [10]: 4.09 µM | GI50 [11]: 2.03 µM | TGI [11]: 5.63 µM | GI50 [12]: 2.51 µM | TGI [12]: 6.35 µM | GI50 [13]: 3.51 µM | TGI [13]: 21.2 µM | GI50 [14]: 2.81 µM | TGI [14]: 41.5 µM | GI50 [15]: 1.75 µM | TGI [15]: 3.36 µM | GI50 [16]: 2.06 µM | TGI [16]: 5.25 µM | GI50 [17]: 2.19 µM | TGI [17]: 8.33 µM | GI50 [18]: 3.3 µM | TGI [18]: 17.7 µM | GI50 [19]: 3.61 µM | TGI [19]: 39.5 µM | GI50 [20]: 2.73 µM | TGI [20]: > 100 µM | GI50 [21]: 3.17 µM | TGI [21]: 17.6 µM | GI50 [22]: 2.76 µM | TGI [22]: 11.5 µM | GI50 [23]: 5.22 µM | TGI [23]: 20 µM | GI50 [24]: 3.29 µM | TGI [24]: 11.6 µM | GI50 [25]: 3 µM | TGI [25]: 16.7 µM | GI50 [26]: 2.88 µM | TGI [26]: 15.3 µM | GI50 [27]: 1.31 µM | TGI [27]: 4.91 µM | GI50 [28]: 2.64 µM | TGI [28]: 18.8 µM | GI50 [29]: 3.11 µM | TGI [29]: 14.8 µM | GI50 [30]: 1.3 µM | TGI [30]: 3.95 µM | GI50 [31]: 3.22 µM | TGI [31]: 9.29 µM | GI50 [32]: 2.51 µM | TGI [32]: 6.58 µM | GI50 [33]: 3.01 µM | TGI [33]: 10.5 µM | GI50 [34]: 1.83 µM | TGI [34]: 21 µM | GI50 [35]: 2.48 µM | TGI [35]: 11.2 µM | GI50 [36]: 1.25 µM | TGI [36]: 3.2 µM | GI50 [37]: 2.25 µM | TGI [37]: > 100 µM | GI50 [38]: 1.57 µM | TGI [38]: 8.36 µM | GI50 [39]: 1.89 µM | TGI [39]: 5.52 µM | GI50 [40]: 2.31 µM | TGI [40]: > 100 µM | GI50 [41]: 1.41 µM | TGI [41]: 8.29 µM | GI50 [42]: 1.82 µM | TGI [42]: 3.5 µM | GI50 [43]: 1.34 µM | TGI [43]: 3.21 µM | GI50 [44]: 2.62 µM | TGI [44]: 7.26 µM | GI50 [45]: 1.77 µM | TGI [45]: 5.09 µM | GI50 [46]: 3.84 µM | TGI [46]: 16.5 µM | GI50 [47]: 3.38 µM | TGI [47]: 34.7 µM | GI50 [48]: 3.16 µM | TGI [48]: 23.1 µM | GI50 [49]: 1.7 µM | TGI [49]: 4.16 µM | GI50 [50]: 3.17 µM | TGI [50]: > 100 µM | GI50 [51]: 1.41 µM | TGI [51]: 6.18 µM | GI50 [52]: 3.84 µM | TGI [52]: > 100 µM | GI50 [53]: 2.61 µM | TGI [53]: 15.4 µM | GI50 [54]: 3.46 µM | TGI [54]: > 100 µM | GI50 [55]: 2.3 µM | TGI [55]: 10.2 µM | GI50 [56]: 1.31 µM | TGI [56]: 2.69 µM
